Results on 22 compounds are retold here after US11897862B2 (Gilead Sciences, Inc., priority 2022, dated 2024).

In general, Dmax refers to the largest share of the target that was removed. A low value points to shallow degradation.

Format in all cases: cell-based
For one experiment, the target named is T1, IKZF1 (Homo sapiens, UniProt Q13422+Q96SW2).
T1 construct: expressed in transfected cells
Kind of experiment: HEK293 HiBiT in vitro degradation of IKZF1. The settings on record: for DC50 / IKZF1 Dmax: HEK293 HiBiT; for DC50: 18-24 hr incubation, normalized to DMSO control, read-out: IKZF1 EC50; for Dmax: HEK293, HEK293 HiBiT; for Dmax / IKZF1 Dmax: maximum degradation at the highest concentration tested. The procedure, abridged:
(§1)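 EC50 and Dmax come from Nano-Glo lytic luminescence after 18-24 hr compound treatment at 37° C. Reporter cells were single-copy Flp-In T-REx HEK293 pools carrying HiBiT fused to the C-terminus of IKZF1, IKZF2 or SALL4. Expression was induced overnight beforehand with […] doxycycline.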

The target of experiment [1] is T2, IKZF2 (Homo sapiens, UniProt Q96SW2+Q9UKS7). Kind of experiment: Human whole blood IKZF2 degradation (flow cytometry, CD4/CD25/Foxp3+ Treg cells). Set-up: endogenous in cells. To be noted: 24 hrs incubation, IKZF2 MFI in CD4/CD25/Foxp3+ Treg cells, flow cytometry; for DC50: read-out: IKZF2 EC50. How it is done: In vitro IKZF2 potency was assessed in human whole blood using a fluorescence activated cell sorting assay. 50 μL of freshly collected blood from healthy human volunteers was incubated with Immunocult CD3/CD28 activator (Stemcell Technologies) and solution of testing compounds (serially-diluted) for 24 hrs hours at 37° C. in 384 well plates. The treated red blood cells were removed by adding lysis buffer (BD cat #558049) then the cells were fixed, permeabilized, and stained with anti-CD4 (BD cat #564419), anti-Foxp3 (Invitrogen cat #48-4777-42), anti-IKZF1 (Cell Signaling Tech. cat #33462S), and anti-IKZF2(Cell Signaling Tech. cat #65432S) antibodies. The median fluorescent intensity (MFI) of IKZF2 signal from CD4/CD25/Foxp3+ Treg cells and MFI of IKZF1 signal from CD4+ T cells were quantified in the same samples by flow cytometry using an Attune instrument. EC50 and Dmax of each compound was determined by plotting the MFI and DMSO treated wells were used as control. Asterisks (*) indicate examples for which data represents an average of n≥3 repeat experiments.
Target sequence in this assay (Q9UKS7 whole entry): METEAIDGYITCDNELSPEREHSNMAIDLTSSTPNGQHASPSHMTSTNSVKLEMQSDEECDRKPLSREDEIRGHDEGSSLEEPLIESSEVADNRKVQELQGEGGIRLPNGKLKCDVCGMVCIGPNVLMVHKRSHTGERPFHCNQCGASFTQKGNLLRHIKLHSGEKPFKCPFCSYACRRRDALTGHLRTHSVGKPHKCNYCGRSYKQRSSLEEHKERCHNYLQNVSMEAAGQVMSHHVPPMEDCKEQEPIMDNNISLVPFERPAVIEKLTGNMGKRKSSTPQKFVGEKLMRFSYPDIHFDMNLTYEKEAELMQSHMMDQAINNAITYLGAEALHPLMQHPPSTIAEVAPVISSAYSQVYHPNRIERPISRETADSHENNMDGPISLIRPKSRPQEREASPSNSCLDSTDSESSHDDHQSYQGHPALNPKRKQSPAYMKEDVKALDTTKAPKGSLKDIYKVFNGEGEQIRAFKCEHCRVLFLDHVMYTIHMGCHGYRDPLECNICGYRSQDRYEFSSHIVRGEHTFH
Target sequence in this assay (Q96SW2 whole entry): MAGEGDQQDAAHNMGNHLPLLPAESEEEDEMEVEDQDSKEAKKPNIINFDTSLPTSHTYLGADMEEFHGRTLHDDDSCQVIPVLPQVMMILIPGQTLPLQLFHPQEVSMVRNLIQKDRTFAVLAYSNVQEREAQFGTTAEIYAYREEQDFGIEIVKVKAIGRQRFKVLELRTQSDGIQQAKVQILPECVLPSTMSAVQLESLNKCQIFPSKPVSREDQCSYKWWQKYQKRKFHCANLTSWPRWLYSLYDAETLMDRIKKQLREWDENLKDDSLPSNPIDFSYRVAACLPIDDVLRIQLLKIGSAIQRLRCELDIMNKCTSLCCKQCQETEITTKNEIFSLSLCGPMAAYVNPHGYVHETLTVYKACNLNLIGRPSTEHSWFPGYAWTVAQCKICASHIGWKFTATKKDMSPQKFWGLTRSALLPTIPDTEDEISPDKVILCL
Target sequence in this assay (Q16531 whole entry partner): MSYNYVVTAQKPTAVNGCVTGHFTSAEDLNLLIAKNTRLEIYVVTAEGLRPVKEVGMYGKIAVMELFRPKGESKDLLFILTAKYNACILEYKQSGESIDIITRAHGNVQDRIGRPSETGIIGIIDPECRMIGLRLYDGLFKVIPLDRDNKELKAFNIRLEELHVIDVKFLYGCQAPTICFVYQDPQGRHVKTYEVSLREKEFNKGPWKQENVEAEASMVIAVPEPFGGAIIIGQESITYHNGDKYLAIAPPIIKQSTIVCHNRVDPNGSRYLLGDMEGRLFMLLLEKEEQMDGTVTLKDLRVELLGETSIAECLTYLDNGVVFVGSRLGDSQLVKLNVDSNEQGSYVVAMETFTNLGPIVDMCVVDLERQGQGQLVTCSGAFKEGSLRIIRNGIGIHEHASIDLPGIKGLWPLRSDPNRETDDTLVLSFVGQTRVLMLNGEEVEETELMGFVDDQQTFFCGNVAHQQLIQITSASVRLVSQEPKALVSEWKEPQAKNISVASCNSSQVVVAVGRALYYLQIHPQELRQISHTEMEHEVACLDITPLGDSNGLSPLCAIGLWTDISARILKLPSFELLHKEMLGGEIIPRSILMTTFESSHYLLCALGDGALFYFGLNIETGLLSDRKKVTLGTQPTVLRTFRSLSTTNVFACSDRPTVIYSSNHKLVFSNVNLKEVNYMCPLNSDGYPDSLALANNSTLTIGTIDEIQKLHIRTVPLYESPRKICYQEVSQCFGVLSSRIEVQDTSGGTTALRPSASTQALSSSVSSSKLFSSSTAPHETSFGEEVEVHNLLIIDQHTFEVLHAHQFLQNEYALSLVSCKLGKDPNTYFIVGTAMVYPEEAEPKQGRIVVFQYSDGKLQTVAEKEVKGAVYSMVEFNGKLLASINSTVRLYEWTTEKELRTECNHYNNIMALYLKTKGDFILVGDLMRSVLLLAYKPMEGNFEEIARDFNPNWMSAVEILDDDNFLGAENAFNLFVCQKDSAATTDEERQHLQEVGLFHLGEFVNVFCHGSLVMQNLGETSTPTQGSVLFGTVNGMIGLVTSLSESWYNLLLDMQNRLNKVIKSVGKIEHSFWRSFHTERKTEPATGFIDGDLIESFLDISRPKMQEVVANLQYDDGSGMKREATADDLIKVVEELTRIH
Background: In flow cytometry, cells or beads pass a laser one at a time.

The target in experiment [2] is T2, IKZF2. The experiment in a line: HEK293 HiBiT in vitro degradation of IKZF2. Details: expressed in transfected cells. The settings on record: for Dmax: HEK293, HEK293 HiBiT; for Dmax / IKZF2 Dmax: maximum degradation at the highest concentration tested; for DC50 / IKZF2 Dmax: HEK293 HiBiT; for DC50: 18-24 hr incubation, normalized to DMSO control, read-out: IKZF2 EC50. The procedure, abridged:
as §1
Target sequence in this assay (Q9UKS7 1-500 isoform Q9UKS7-2): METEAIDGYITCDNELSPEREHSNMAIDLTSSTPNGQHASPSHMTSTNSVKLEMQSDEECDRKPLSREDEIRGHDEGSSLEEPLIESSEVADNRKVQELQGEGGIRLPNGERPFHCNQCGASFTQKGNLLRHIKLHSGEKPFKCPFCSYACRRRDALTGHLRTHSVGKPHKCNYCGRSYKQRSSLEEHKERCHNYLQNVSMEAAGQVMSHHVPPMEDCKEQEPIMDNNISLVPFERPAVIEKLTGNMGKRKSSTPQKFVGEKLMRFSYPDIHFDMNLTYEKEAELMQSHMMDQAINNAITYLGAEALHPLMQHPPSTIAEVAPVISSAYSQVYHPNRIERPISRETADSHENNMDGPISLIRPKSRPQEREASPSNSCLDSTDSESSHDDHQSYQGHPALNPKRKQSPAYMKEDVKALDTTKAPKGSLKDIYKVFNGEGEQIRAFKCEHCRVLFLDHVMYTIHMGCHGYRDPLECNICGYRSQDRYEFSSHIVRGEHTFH
Target sequence in this assay (Q96SW2 whole entry): as the sequence (Q96SW2 whole entry) above
Target sequence in this assay (Q16531 whole entry partner): as the sequence (Q16531 whole entry partner) above
A general note: HiBiT is a short tag that completes a luciferase, so light tracks the accessible tagged protein.

T1 sequence (Q13422 whole entry): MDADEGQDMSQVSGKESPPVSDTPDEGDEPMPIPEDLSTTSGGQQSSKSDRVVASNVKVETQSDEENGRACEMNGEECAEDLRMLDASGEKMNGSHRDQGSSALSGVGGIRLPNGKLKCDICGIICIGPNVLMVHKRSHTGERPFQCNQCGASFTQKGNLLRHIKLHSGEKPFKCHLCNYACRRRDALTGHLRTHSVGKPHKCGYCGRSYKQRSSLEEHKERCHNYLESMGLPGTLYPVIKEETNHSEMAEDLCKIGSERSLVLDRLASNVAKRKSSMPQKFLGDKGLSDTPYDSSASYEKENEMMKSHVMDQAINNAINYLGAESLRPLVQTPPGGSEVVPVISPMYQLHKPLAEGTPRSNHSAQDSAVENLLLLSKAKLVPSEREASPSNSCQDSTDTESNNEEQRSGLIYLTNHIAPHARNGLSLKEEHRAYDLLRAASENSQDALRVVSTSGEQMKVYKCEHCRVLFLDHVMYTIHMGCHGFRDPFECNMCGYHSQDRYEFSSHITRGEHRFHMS
T1 sequence (Q96SW2 whole entry): as the sequence (Q96SW2 whole entry) above
T1 sequence (Q16531 whole entry partner): as the sequence (Q16531 whole entry partner) above

On to `O=C1CCC(N2Cc3cc(C[C@H]4CCCC[C@@H]4NC4CCCC4)ccc3C2=O)C(=O)N1` (stereo partly drawn) [Example 52, 3-(5-(((1R,2S)-2-(cyclopentylamino)cyclohexyl)methyl)-1-oxoisoindolin-2-yl)piperidine-2,6-dione], for which the DC50 on IKZF1 is more than 1000 nM; at IKZF2 [1], 5 nM; on IKZF2 [2], 6 nM. Further, the Dmax on IKZF2 [1] came out at 95%; on IKZF2 [2] it was 96%.

Turning to `CC(C)(C)CCN[C@H]1CCCC[C@@H]1Cc1ccc2c(c1)CN(C1CCC(=O)NC1=O)C2=O` (stereo partly drawn) [Example 56, 3-(5-(((1R,2S)-2-((3,3-dimethylbutyl)amino)cyclohexyl)methyl)-1-oxoisoindolin-2-yl)piperidine-2,6-dione], the results for the Dmax on IKZF1, on IKZF2 [1] and on IKZF2 [2] were 44%, 97% and 96%, respectively. In addition, the DC50 at IKZF1 was 68 nM; on IKZF2 [1], 8 nM; at IKZF2 [2], 14 nM.

On to `O=C1CCC(N2Cc3cc(C[C@H]4CCCC[C@@H]4NCC45CC(C4)C5)ccc3C2=O)C(=O)N1` (stereo partly drawn) [Example 63], for which the DC50 on IKZF1 was more than 1000 nM; on IKZF2 [1] it was 19 nM; on IKZF2 [2] it was 19 nM. For the same compound, the greatest degradation seen (Dmax) was 91% at IKZF2 [1] and 89% on IKZF2 [2].

As to `O=C1CCC(N2Cc3cc(C[C@H]4CCCC[C@@H]4NC4CCOCC4)ccc3C2=O)C(=O)N1` (stereo partly drawn) [Example 74], the greatest degradation seen (Dmax) amounted to 55% at IKZF1, 93% on IKZF2 [1] and 96% at IKZF2 [2]. Further, the DC50 on IKZF1 was determined as 226 nM; on IKZF2 [1] it was 3 nM; at IKZF2 [2], 4 nM.

Take `O=C1CCC(N2Cc3cc(C[C@H]4CCCC[C@@H]4NC4CC5(CC5)C4)ccc3C2=O)C(=O)N1` (stereo partly drawn) [Example 79, 3-(1-oxo-5-(((1R,2S)-2-(spiro[2.3]hexan-5-ylamino)cyclohexyl)methyl)isoindolin-2-yl)piperidine-2,6-dione]: the Dmax at IKZF1 is 33%; on IKZF2 [1], 93%; on IKZF2 [2] it was 94%. Further, the figures for the DC50 on IKZF1, on IKZF2 [1] and at IKZF2 [2] were 98 nM, 5 nM and 5 nM, respectively.

`CC1(C)CC(N[C@H]2CCCC[C@@H]2Cc2ccc3c(c2)CN(C2CCC(=O)NC2=O)C3=O)C1` (stereo partly drawn) [Example 82, 3-(5-(((1R,2S)-2-((3,3-dimethylcyclobutyl)amino)cyclohexyl)methyl)-1-oxoisoindolin-2-yl)piperidine-2,6-dione]: the Dmax was 28% at IKZF1, 89% at IKZF2 [1] and 94% on IKZF2 [2]. Further, the figures for the DC50 on IKZF1, on IKZF2 [1] and at IKZF2 [2] were 327 nM, 4 nM and 7 nM, respectively.

On to `CC(C)N[C@H]1CCCC[C@@H]1Cc1ccc2c(c1F)CN(C1CCC(=O)NC1=O)C2=O` (stereo partly drawn) [Example 85, 3-(4-fluoro-5-(((1R,2S)-2-(isopropylamino)cyclohexyl)methyl)-1-oxoisoindolin-2-yl)piperidine-2,6-dione], for which the results for the Dmax at IKZF1, on IKZF2 [1] and at IKZF2 [2] were 40%, 96% and 97%, respectively. In addition, the DC50 at IKZF1 is 70 nM; at IKZF2 [1] it was 2 nM; on IKZF2 [2], 2 nM.

For the compound `CC(C)(C)CCN[C@H]1CCCC[C@@H]1Cc1ccc2c(c1F)CN(C1CCC(=O)NC1=O)C2=O` (stereo partly drawn) [Example 89, 3-(5-(((1R,2S)-2-((3,3-dimethylbutyl)amino)cyclohexyl)methyl)-4-fluoro-1-oxoisoindolin-2-yl)piperidine-2,6-dione], the Dmax at IKZF1 turned out to be 28%; on IKZF2 [1] it was 97%; on IKZF2 [2], 97%. The DC50 at IKZF1 is 64 nM; on IKZF2 [1] it was 5 nM; at IKZF2 [2], 6 nM.

For the compound `O=C1CCC(N2Cc3cc(C[C@H]4OCCC[C@@H]4NC4CCCCC4)ccc3C2=O)C(=O)N1` (stereo partly drawn) [Example 95, 3-(5-(((2R,3S)-3-(cyclohexylamino)tetrahydro-2H-pyran-2-yl)methyl)-1-oxoisoindolin-2-yl)piperidine-2,6-dione], the values for the DC50 at IKZF1, on IKZF2 [1] and at IKZF2 [2] were more than 10000 nM, 11 nM and 16 nM, respectively. For the same compound, the values for the maximal degradation (Dmax) on IKZF2 [1] and on IKZF2 [2] were 89% and 88%, respectively.

With `O=C1CCC(N2Cc3cc(C[C@H]4CCCC[C@@H]4NC4CC5(C4)CC(F)(F)C5)ccc3C2=O)C(=O)N1` (stereo partly drawn) [Example 101], the Dmax on IKZF1 was found to be 32%; on IKZF2 [1], 95%; on IKZF2 [2], 98%. In addition, the DC50 at IKZF1 is 39 nM; at IKZF2 [1] it was 6 nM; at IKZF2 [2], 5 nM.

Take `CC(N[C@H]1CCCC[C@@H]1Cc1ccc2c(c1)CN(C1CCC(=O)NC1=O)C2=O)C1CCC1` (stereo partly drawn) [Example 103]: the DC50 was more than 1000 nM on IKZF1, 4 nM at IKZF2 [1] and 3 nM on IKZF2 [2]. Further, the Dmax at IKZF2 [1] was found to be 96%; on IKZF2 [2] it was 95%.

For `CC1(C)CC(N[C@H]2CCCC[C@@H]2Cc2ccc3c(c2)CN(C2CCC(=O)NC2=O)C3=O)CCO1` (stereo partly drawn) [Example 109], the Dmax on IKZF1 was found to be 34%; on IKZF2 [1], 97%; at IKZF2 [2], 96%. For the same compound, the DC50 at IKZF1 was 103 nM; on IKZF2 [1], 1 nM; on IKZF2 [2], 5 nM.

Turning to `CC1(C)CC(N[C@H]2CCCC[C@@H]2Cc2ccc3c(c2)CN(C2CCC(=O)NC2=O)C3=O)CCO1` (stereo partly drawn) [Example 110], at IKZF1, the DC50 came out at 163 nM and the “IKZF1 Dmax” value stood at 32%. On IKZF2 [1], the “IKZF2 Dmax” value was determined as 98% and the DC50 is 3 nM. Moreover, on IKZF2 [2], the DC50 came out at 5 nM and the “IKZF2 Dmax” value was 96%.

In the case of `O=C1CCC(N2Cc3c(ccc(C[C@H]4CCCC[C@@H]4NCC4COC4)c3F)C2=O)C(=O)N1` (stereo partly drawn) [Example 114], the Dmax on IKZF1 stood at 28%; on IKZF2 [1], 98%; on IKZF2 [2], 98%. Besides, the DC50 on IKZF1 is 88 nM; at IKZF2 [1] it was 5 nM; at IKZF2 [2], 8 nM.

`O=C1CCC(N2Cc3c(ccc(C[C@H]4CCCC[C@@H]4NCC4CCOCC4)c3F)C2=O)C(=O)N1` (stereo partly drawn) [Example 115]: the Dmax stood at 37% on IKZF1, 90% on IKZF2 [1] and 96% on IKZF2 [2]. Also, the DC50 on IKZF1 was found to be 78 nM; on IKZF2 [1], 6 nM; on IKZF2 [2] it was 8 nM.

For the compound `O=C1CCC(N2Cc3c(ccc(C[C@H]4CCCC[C@@H]4NC4CCOC4)c3F)C2=O)C(=O)N1` (stereo partly drawn) [Example 117], the Dmax at IKZF1 stood at 46%; on IKZF2 [1] it was 92%; at IKZF2 [2] it was 97%. Besides, the DC50 is 39 nM at IKZF1, 1 nM at IKZF2 [1] and 2 nM at IKZF2 [2].

As to `O=C1CCC(N2Cc3c(ccc(C[C@H]4CCCC[C@@H]4NC4CCOC4)c3F)C2=O)C(=O)N1` (stereo partly drawn) [Example 118], on IKZF1, the DC50 was determined as 57 nM and the “IKZF1 Dmax” value is reported as 44%. In addition, on IKZF2 [1], the “IKZF2 Dmax” value came to 91% and the DC50 amounted to 1 nM. On IKZF2 [2], the DC50 is 2 nM and the “IKZF2 Dmax” value is given as 97%.

For `[2H]C1(N[C@H]2CCCC[C@@H]2Cc2ccc3c(c2)CN(C2CCC(=O)NC2=O)C3=O)CCC(F)(F)CC1` (stereo partly drawn) [Example 119], the Dmax at IKZF1 was determined as 54%; on IKZF2 [1] it was 92%; at IKZF2 [2] it was 98%. The DC50 on IKZF1 is 46 nM; at IKZF2 [1], 2 nM; on IKZF2 [2] it was 2 nM.

Take `CN(C1CCC(F)(F)CC1)[C@H]1CCCC[C@@H]1Cc1ccc2c(c1F)CN(C1CCC(=O)NC1=O)C2=O` (stereo partly drawn) [Example 124]: the DC50 is more than 10000 nM on IKZF1, 23 nM at IKZF2 [1] and 16 nM at IKZF2 [2]. Moreover, the Dmax at IKZF2 [1] amounted to 91%; on IKZF2 [2] it was 94%.

`O=C1CCC(N2Cc3cc(C[C@H]4CCCC[C@@H]4NC4CC5(CCOCC5)C4)ccc3C2=O)C(=O)N1` (stereo partly drawn) [Example 125]: the figures for the maximal degradation (Dmax) at IKZF1, on IKZF2 [1] and at IKZF2 [2] were 26%, 91% and 96%, respectively. For the same compound, the figures for the DC50 at IKZF1, at IKZF2 [1] and on IKZF2 [2] were 126 nM, 3 nM and 17 nM, respectively.

As to `CC(C)CCN[C@H]1CCCC[C@@H]1Cc1ccc2c(c1)CN(C1CCC(=O)NC1=O)C2=O` (stereo partly drawn) [Example 129], the results for the Dmax at IKZF1, at IKZF2 [1] and on IKZF2 [2] were 25%, 91% and 95%, respectively. Further, the DC50 at IKZF1 was 93 nM; at IKZF2 [1], 9 nM; at IKZF2 [2], 13 nM.

In the case of `CC(N[C@H]1CCCC[C@@H]1Cc1ccc2c(c1)CN(C1CCC(=O)NC1=O)C2=O)C12CC(C1)C2` (stereo partly drawn) [Example 138], the DC50 was more than 1000 nM at IKZF1, 3 nM on IKZF2 [1] and 4 nM at IKZF2 [2]. For the same compound, the Dmax worked out at 96% on IKZF2 [1] and 98% on IKZF2 [2].
